According to PubChem BioAssay (NCI):
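Step 1: Grow cells in 96-well plates. Step 2: Expose to compound for 48 hours at 5 concentrations. Step 3: Interpolate endpoints linearly; if unreached, use highest concentration. GI50 = concentration required for 50% inhibition of growth. TGI: total growth inhibition.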

Columns and labels:
Assay in all cases: growth of human tumour cells (NCI), 48 h
HT29 colon = tested on: HT29 colon
NCI-H226 lung = tested on: NCI-H226 lung
COLO 205 colon = tested on: COLO 205 colon
LOX IMVI melanoma = tested on: LOX IMVI melanoma
SK-MEL-2 melanoma = tested on: SK-MEL-2 melanoma
IGROV1 ovarian = tested on: IGROV1 ovarian
SK-OV-3 ovarian = tested on: SK-OV-3 ovarian
NCI-H23 lung = tested on: NCI-H23 lung
786-0 renal = tested on: 786-0 renal
CAKI-1 renal = tested on: CAKI-1 renal

SMILES	TGI (HT29 colon) [µM]	TGI (NCI-H226 lung) [µM]	TGI (COLO 205 colon) [µM]	TGI (LOX IMVI melanoma) [µM]	TGI (SK-MEL-2 melanoma) [µM]	TGI (IGROV1 ovarian) [µM]	TGI (SK-OV-3 ovarian) [µM]	TGI (NCI-H23 lung) [µM]	TGI (786-0 renal) [µM]	GI50 (CAKI-1 renal) [µM]	TGI (CAKI-1 renal) [µM]	GI50 (HT29 colon) [µM]	GI50 (NCI-H226 lung) [µM]	GI50 (COLO 205 colon) [µM]	GI50 (LOX IMVI melanoma) [µM]	GI50 (SK-MEL-2 melanoma) [µM]	GI50 (IGROV1 ovarian) [µM]	GI50 (SK-OV-3 ovarian) [µM]	GI50 (NCI-H23 lung) [µM]	GI50 (786-0 renal) [µM]
COc1ccc(-c2cc(=O)c3c(O)cc(C)cc3o2)cc1OC	> 100	> 100	> 100	> 100	> 100	> 100	> 100	> 100	> 100											
O=C(OCc1ccc2c(Cl)cc(Cl)c(O)c2n1)c1cc2ccccc2[nH]1	1.03	3.07	2.45	0.332	3.25	0.5	13.3	3.2	0.833	0.435	1.65	0.32	1.48	0.834	0.17	1.47	0.219	3.6	1.49	0.275
O=C(NO)C(=O)Nc1ccc(Cl)cc1[N+](=O)[O-]	> 100	> 100	> 100	> 100	> 100	> 100	> 100	> 100	> 100		> 100									
CCC(C(=O)[O-])C(=O)[O-].CCC(C(=O)[O-])C(=O)[O-].N.N.NCCCCCCN.[Pt+4].[Pt+4]	19.4	20.2	1.66	20.6	16.9	18.7	18.3	24.5	14.5	2.25	4.97	9.01	10	0.883	10.1	8.4	8.13	10.3	9.84	7.74
CCc1nc(Cl)nc(Cl)c1Cl	5.04	14.9	14.6	0.394		13.7	18.4	5.9	6.42		1.15									
COc1ccc(-c2ccc(/C=N/n3c(C)nn(CN4CCN(C)CC4)c3=S)o2)c([N+](=O)[O-])c1	> 100		> 100			> 100	> 100	92.5	> 100	24.4	> 100	28		52.5			63.4	45	26.1	39.4
CC1=C(c2cc(C(=O)Nc3cccc(C(F)(F)F)c3)ncn2)Sc2ccccc2N1	> 100	> 100	> 100		> 100	> 100	> 100	> 100	> 100		> 100									
NC(=O)/C=C/NC(=O)/C=N\O	> 100	> 100	> 100	> 100		> 100	> 100		> 100		> 100									
c1ccc(COCC2OC3c4ccccc4COC3C2OCc2ccccc2)cc1 (stereo not drawn)	> 100	> 100	> 100		> 100	> 100	> 100	> 100	> 100		> 100									
COc1ccc(-c2csc(-c3cc(Cl)cc(Cl)c3Cl)n2)cc1	> 100	> 100	> 100	> 100	> 100	> 100	> 100		> 100	> 100	> 100	47.5	78	> 100	> 100	> 100	56.8	96.8		> 100
N#CC1(C=O)c2ccccc2C=CN1C(=O)c1ccccc1 (stereo not drawn)	> 100	> 100	> 100		> 100	> 100		> 100	> 100		> 100									
Cn1c2c(c3ccccc31)CCN(CCCCN1CCN(c3cccc(Cl)c3)CC1)C2=O	10.5		11.2		31.1	47	37.8	27.4	29.6		> 100									
COc1cnc2c(c1)C(=O)c1c-2n(CCCN2CCCC2)c(=O)c2cc(F)ccc12	1.1	0.382	2.64	0.558	10.4	3.34	0.986	2.4	1.11			0.209	0.164	0.109	0.185	1.39	0.363	0.272	0.331	0.257
N#Cc1ccc(C(c2ccc(C#N)cc2)n2cncn2)cc1	> 5000	> 5000	> 5000	> 5000			> 5000	> 5000	> 5000	> 5000	> 5000	> 5000	> 5000	> 5000	> 5000		47.5	> 5000	> 5000	> 5000
CNCCCNc1nc2ccccc2c2c(=O)c3cc(Cl)ccc3sc12	3.13	47.1	3.54		3.43	3.18	2.89	3.18	3.2	1.4	2.7	1.67	4.58	1.88		1.75	1.51	1.47	1.61	1.71
O=C(Oc1ccccc1Cl)c1ccccc1Nc1ccnc(C(F)(F)F)c1	> 100	0.915		0.0864	> 100	> 100	46.4	0.248	2.39	0.599	1.76	0.389	0.286		0.0261	26.4	16.3	8.02	0.0428	0.859
